Experimental data as given in patent publication US6586441B2, “Adenosine receptor ligands and their use in the treatment of disease” (Hoffman-La Roche Inc., priority 2000, dated 2003).
Like-named read-outs stand apart in the source and are kept apart here.

Tests used:
[1] = target: T1, human adenosine A1 receptor (Homo sapiens, UniProt P30542); test: Human adenosine A1 receptor [3H]-DPCPX binding assay; settings: membranes of CHO cells, read-out: hA1 (pKi) (converted)
T1 construct: expressed in transfected cells; host or cells: CHO cells, semliki forest virus expression system; membrane preparation
T1 sequence (P30542 1-326): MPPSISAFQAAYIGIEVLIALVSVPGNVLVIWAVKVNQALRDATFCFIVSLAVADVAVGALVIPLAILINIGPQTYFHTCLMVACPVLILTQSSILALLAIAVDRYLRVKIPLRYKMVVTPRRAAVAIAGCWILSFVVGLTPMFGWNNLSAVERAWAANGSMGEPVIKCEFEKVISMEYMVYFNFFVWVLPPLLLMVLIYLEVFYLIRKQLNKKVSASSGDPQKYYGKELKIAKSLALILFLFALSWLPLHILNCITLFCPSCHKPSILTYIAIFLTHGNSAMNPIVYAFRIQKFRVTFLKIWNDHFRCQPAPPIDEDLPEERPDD
Description: The gene encoding human adenosine A1 receptor was recombinantly introduced and expressed in chinese hamster ovary (CHO) cells using the semliki forest virus expression system. Cells were harvested, washed twice by centrifugation, homogenised and again washed by centrifugation. The final washed membrane pellet was suspended in a Tris (50 mM) buffer containing 120 mM NaCl, 5 mM KCl, 2 mM CaCl2 and 10 mM MgCl2 (pH 7.4) (buffer A). The [^3H]-DPCPX (([propyl-3H]8-cyclopentyl-1,3-dipropyxanthine); 0.6 nM) binding assay was carried out in 96-well plates in the presence of 2.5 μg of membrane protein, 0.5 mg of Ysi-poly-1-lysine SPA beads and 0. I U adenosine deaminase in a final volume of 200 μl of buffer A. Non-specific binding was defined using xanthine amine congener (XAC; 2 μM). Compounds were tested at 10 concentrations from 10 μM-0.3 nM. All assays were conducted in duplicate and repeated at least two times. Assay plates were incubated for 1 hour at room temperature before centrifugation and then bound ligand determined using a Packard Topcount scintillation counter. IC50 values were calculated using a non-linear curve fitting program and Ki values calculated using the Cheng-Prussoff equation.

[2] = target: T2, human adenosine A2A receptor (Homo sapiens, UniProt P29274); test: Human adenosine A2A receptor [3H]-SCH-58261 binding assay
T2 construct: expressed in transfected cells; host or cells: CHO cells, semliki forest virus expression system; membrane preparation
How it was run: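 Membranes from CHO cells expressing the human receptor (Semliki Forest virus system) were incubated with 1 nM [3H]-SCH-58261 and adenosine deaminase. The buffer was Tris pH 7.4 with NaCl, KCl, CaCl2 and MgCl2, and the read-out was SPA after 1 h at room temperature. Non-specific binding was defined with XAC; compounds were run at 10 concentrations (10 μM–0.3 nM), and IC50 values were converted to Ki by Cheng-Prusoff.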

[3] = target: T3, human adenosine A3 receptor (Homo sapiens, UniProt P0DMS8); test: Human adenosine A3 receptor [125I]-AB-MECA binding assay; settings: membranes of CHO cells, read-out: hA3 (pKi) (converted)
T3 construct: expressed in transfected cells; host or cells: CHO cells, semliki forest virus expression system; membrane preparation
T3 sequence (P0DMS8 1-318): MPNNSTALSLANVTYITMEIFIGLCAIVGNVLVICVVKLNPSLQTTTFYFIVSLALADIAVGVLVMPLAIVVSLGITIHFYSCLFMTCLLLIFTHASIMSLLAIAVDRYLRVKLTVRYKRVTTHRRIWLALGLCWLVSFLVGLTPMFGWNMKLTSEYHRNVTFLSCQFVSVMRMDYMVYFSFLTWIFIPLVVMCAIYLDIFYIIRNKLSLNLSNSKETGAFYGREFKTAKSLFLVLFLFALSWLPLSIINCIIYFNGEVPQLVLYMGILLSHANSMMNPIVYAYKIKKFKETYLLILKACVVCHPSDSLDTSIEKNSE
Description: The gene encoding human adenosine A3 receptor was recombinantly introduced and expressed in chinese hamster ovary (CHO) cells using the semliki forest virus expression system. Cells were harvested, washed twice by centrifugation, homogenised and again washed by centrifugation. The final washed membrane pellet was suspended in a Tris (50 mM) buffer containing 120 mM NaCl, 5 mM KCl, 2 mM CaCl2 and 10 mM MgCl2 (pH 7.4) (buffer A). The [^125I]-AB-MECA ([N(6)-(4-amino-3-iodobenzyl)-5′-N-methylcarbamoyl-adenosine]; 0.05 nM) binding assay was carried out in 96-well plates in the presence of 20 μg of membrane protein and 0.1 U adenosine deaminase in a final volume of 200 μl of buffer A. Non-specific binding was defined using xanthine amine congener (XAC; 2 μM). Compounds were tested at 10 concentrations from 10 μM-0.3 nM. All assays were conducted in duplicate and repeated at least two times. Assay plates were incubated for 1 hour at room temperature before filtration through Whatman Unifilter GF/C 96-well filter plates (preincubated with 0.3% polyethyleneimine). Filters were washed 3 times with 0.3 ml of cold (4° C.) Tris (50 mM)-Nacl (120 mM) buffer (pH 7.4). Microscint 40 scintillation fluid (50 μl) was added to each well and the wells sealed. After gentle shaking for 20 min, plates were counted on a Packard Topcount scintillation counter. IC50 values were calculated using a non-linear curve fitting program and Ki values calculated using the Cheng-Prussoff equation.

[4] = human A2A receptor, selectivity table, read-out: hA2 (pKi) (converted)
[5] = human A2A receptor, selectivity table
[6] = human A2a receptor, membranes of CHO cells, [3H]-SCH-58261, read-out: pKi (affinity to the human A2a receptor) (converted)

T2 sequence (P29274 whole entry): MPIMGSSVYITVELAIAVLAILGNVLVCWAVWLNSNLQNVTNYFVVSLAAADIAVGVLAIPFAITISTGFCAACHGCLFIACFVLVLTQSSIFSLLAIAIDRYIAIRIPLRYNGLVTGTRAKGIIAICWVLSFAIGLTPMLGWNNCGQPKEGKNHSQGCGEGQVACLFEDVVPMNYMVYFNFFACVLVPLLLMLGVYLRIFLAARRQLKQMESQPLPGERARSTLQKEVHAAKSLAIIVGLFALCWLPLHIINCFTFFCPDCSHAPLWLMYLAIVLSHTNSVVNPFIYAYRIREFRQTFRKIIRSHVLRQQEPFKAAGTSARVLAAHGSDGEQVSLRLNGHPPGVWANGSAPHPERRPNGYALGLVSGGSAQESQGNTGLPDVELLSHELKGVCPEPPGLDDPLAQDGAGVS

Row | Ki [1] [nM] | Ki [2, 4] [nM] | Ki [3] [nM] | hA2 (pKi) [2, 5] | Ki [2, 6] [nM] | Structure (SMILES)
1 | 1320 | 57.5 | 1950 |  |  | COc1cc(-c2nc(N)nc(SC)c2C#N)cc(OC)c1OC [Example 15, 2-Amino-4-methylsulfanyl-6-(3,4,5-trimethoxy-phenyl)-pyrimidine-5-carbonitrile]
2 | 2510 | 36.3 | 1260 |  |  | N#Cc1cnc(N)nc1-c1cccs1 [Example 26, 2-Amino-4-thiophen-2-yl-2-pyrimidine-5-carbonitrile]
3 | 1660 |  | 8910 | 8.33 | 4.68 | N#Cc1c(NCc2ccccc2)nc(N)nc1-c1ccco1 [Example 42, 2-Amino-4-benzylamino-6-furan-2-yl-pyrimidine-5-carbonitrile]
4 | 692 |  | 6030 | 8.33 | 4.68 | N#Cc1c(NCCNc2ccccc2)nc(N)nc1-c1ccco1 [Example 132, 2-Amino-4-furan-2-yl-6-(2-phenylamino-ethylamino)-pyrimidine-5-carbonitrile]
5 | 389 |  | 2040 | 8.34 | 4.57 | N#Cc1c(/C=C/c2ccccc2)nc(N)nc1-c1ccco1 [Example 149, (E)-2-Amino-4-furan-2-yl-6-styryl-pyrimidine-5-carbonitrile]
6 | 372 |  | 151 | 8.59 | 2.57 | Cc1ccccc1CNc1nc(N)nc(-c2ccco2)c1C#N [Example 288, 2-Amino-4-furan-2-yl-6-(2-methyl-benzylamino)-pyrimidine-5-carbonitrile]
7 | 2040 |  |  | 8.17 | 6.76 | Cc1ccc(CNc2nc(N)nc(-c3ccco3)c2C#N)cc1 [Example 290, 2-Amino-4-furan-2-yl-6-(4-methyl-benzylamino)-pyrimidine-5-carbonitrile]
8 | 6920 |  |  | 8.23 | 5.89 | N#Cc1c(NCc2ccc3ccccc3c2)nc(N)nc1-c1ccco1 [Example 298, 2-Amino-4-furan-2-yl-6-[(naphthalen-2-ylmethyl)-amino]-pyrimidine-5-carbonitrile]
9 | 316 |  | 8710 | 8.60 | 2.51 | N#Cc1c(OCc2ccc3ccccc3c2)nc(N)nc1-c1ccco1 [Example 303, 2-Amino-4-furan-2-yl-6-(naphthalen-2-ylmethoxy)-pyrimidine-5-carbonitrile]
10 | 851 |  | 7240 | 8.27 | 5.37 | N#Cc1c(NCCNc2ccc(Cl)cc2)nc(N)nc1-c1ccco1 [Example 318, 2-Amino-4-[2-(4-chloro-phenylamino)-ethylamino]-6-furan-2-yl-pyrimidine-5-carbonitrile]
11 | 2880 |  | 3980 | 8.26 | 5.5 | N#Cc1c(NCc2ccc(Br)cc2)nc(N)nc1-c1ccco1 [Example 325, 2-Amino-4-(4-bromo-benzylamino)-6-furan-2-yl-pyrimidine-5-carbonitrile]
12 | 6310 |  |  | 8.38 | 4.17 | N#Cc1c(NCc2ccc(C(F)(F)F)cc2)nc(N)nc1-c1ccco1 [Example 345, 2-Amino-4-furan-2-yl-6-(4-trifluoromethyl-benzylamino)-pyrimidine-5-carbonitrile]
13 | 646 |  | 2140 | 8.40 | 3.98 | CCc1ccc(CNc2nc(N)nc(-c3ccco3)c2C#N)cc1 [Example 375, 2-Amino-4-(4-ethyl-benzylamino)-6-furan-2-yl-pyrimidine-5-carbonitrile]
14 | 4470 |  |  | 8.44 | 3.63 | N#Cc1c(NCc2ncc(C(F)(F)F)cc2Cl)nc(N)nc1-c1ccco1 [Example 400, 2-Amino-4-[(3-chloro-5-trifluoromethyl-pyridin-2-yl-methyl)-amino]-6-furan-2-yl-pyrimidine-5-carbonitrile]
15 |  |  |  |  | 5.62 | Cc1ccc(COc2nc(N)nc(-c3ccc(Cl)o3)c2C#N)nc1 [Example 531, 2-Amino-4-(5-chloro-furan-2-yl)-6-(5-methyl-pyridin-2-yl-methoxy)-pyrimidine-5-carbonitrile]
16 |  |  |  |  | 5.62 | Cc1ccc(COc2nc(N)nc(-c3cc(Br)co3)c2C#N)nc1 [Example 532, 2-Amino-4-(4-bromo-furan-2-yl)-6-(5-methyl-pyridin-2-yl-methoxy)-pyrimidine-5-carbonitrile]
17 |  |  |  |  | 1.41 | Cc1cnc(COc2nc(N)nc(-c3cc(Br)co3)c2C#N)c(C)c1 [Example 533, 2-Amino-4-(4-bromo-furan-2-yl)-6-(3,5-dimethyl-pyridin-2-yl-methoxy)-pyrimidine-5-carbonitrile]
18 |  |  |  |  | 0.955 | Cc1cccnc1COc1nc(N)nc(-c2cc(Br)co2)c1C#N [Example 534, 2-Amino-4-(4-bromo-furan-2-yl)-6-(3-methyl-pyridin-2-yl-methoxy)-pyrimidine-5-carbonitrile]
19 |  |  |  |  | 3.98 | N#Cc1coc(-c2nc(N)nc(SCCc3ccccn3)c2C#N)c1 [Example 535, 2-Amino-4-(4-cyano-furan-2-yl)-6-(2-pyridin-2-yl-ethylsulfanyl)-pyrimidine-5-carbonitrile]
20 |  |  |  |  | 1.95 | N#Cc1c(SCCc2ccccn2)nc(N)nc1-c1ccc(C(F)F)o1 [Example 538, 2-Amino-4-(5-difluoromethyl-furan-2-yl)-6-(2-pyridin-2-yl-ethylsulfanyl)-pyrimidine-5-carbonitrile]
